{"source": "paper PMC10822168", "about": "“Development of potent isoflavone-based formyl peptide receptor 1 (FPR1) antagonists and their effects in gastric cancer cell models” (European journal of medicinal chemistry, 2023)", "type_in_all_cases": "cell-based, human", "key": {"[1]": {"tested_on": "NCl–N87 cells", "experiment": "Scratch migration assay in NCl–N87 cells", "settings": "NCl–N87, fMLF 10 nM, 24 h incubation", "source_text": "The results are representative of three independent experiments."}, "[2]": {"tested_on": "AGS cells", "experiment": "Scratch migration assay in AGS cells", "settings": "fMLF 10 nM, 24 h incubation", "experimental": "The effect of FPR1 blockade on cell migration was assessed using the scratch assay, an easy and well-developed method to measure cell migration in vitro. […] Conversely, 24a and 25a reduced the migration rate in a dose-dependent manner. The effect was more pronounced in NCl–N87 as compared to AGS cells. […] The effect was FPR1-mediated, as it was counterbalanced by co-administration of the agonist fMLF (10 nM).\nFig. 8. Effect of 24a and 25a on cell migration in NCl–N87 and AGS cell lines. Scratch assay assessed on cells treated with fMLF (10 nM) and 24a or 25a (1, 1.5, 2 μM) administrated alone or combining the lowest dose of 24a or 25a with fMLF. The cells were microscopically analyzed at the time of the scratch (T0) and after 24 h (T1). The relative migration rate was calculated by setting the percentage of migration of the control cells at time T1 equal to 1 and comparing the migration percentage of the cells after each drug treatment to this value. Representative original photographs (panel A) and quantitative analysis (panel B) of the cell-free scratch path ares. […] Statistical analysis was assessed by comparing the values obtained using a single drug treatment to those of corresponding untreated cells and the combined treatments to those of the single treatments, *p < 0.05, **p < 0.001, ****p < 0.0001. […]"}, "[3]": {"tested_on": "VEGFA", "experiment": "ELISA of VEGFA secretion in culture medium of NCl–N87 cells", "settings": "NCl–N87, fMLF 10 nM, 48 h", "experimental": "(§1) Secretion of VEGFA and angiopoietin 2 (Ang2) in the culture medium of NCl–N87 and AGS cells was assessed after 48 h of drug treatment using ELISA methods (Fig. 10). […] Once again, the effects were more pronounced in NCl–N87 cells than in AGS, and the effect of 25a was more pronounced as compared to 24a. The co-administration of fMLF (10 nM) partially counteracted the effects.\n(§2) Fig. 10. Effect of 24a and 25a on the secretion of VGFA (A) and Ang2 (B) in NCl–N87 and AGS cell lines. The ELISA assays were assessed on cells after 48 h of drug treatment with fMLF (10 nM) and 24a or 25a (1, 5 μM) administrated alone or combining the lowest dose of 24a or 25a with fMLF. The concentration of VEGFA (A) or Ang2 (B) was determined in the medium and normalized for the cell number. The values ± SD, obtained from three independent experiments expressed as pg/mL, were shown in the relative graphs. Statistical analysis was assessed by comparing the values obtained using a single drug treatment to those of corresponding untreated cells and the combined treatments to those of the single treatments. **p < 0.001; ***p < 0.0002; ****p < 0.0001. […]"}, "[4]": {"tested_on": "angiopoietin 2 (Ang2)", "experiment": "ELISA of angiopoietin 2 secretion in culture medium of NCl–N87 cells", "settings": "NCl–N87, fMLF 10 nM, 48 h", "experimental": "as §1, §2"}, "[5]": {"tested_on": "VEGFA", "experiment": "ELISA of VEGFA secretion in culture medium of AGS cells", "settings": "fMLF 10 nM, 48 h", "experimental": "as §1, §2"}, "[6]": {"tested_on": "angiopoietin 2 (Ang2)", "experiment": "ELISA of angiopoietin 2 secretion in culture medium of AGS cells", "settings": "fMLF 10 nM, 48 h", "experimental": "as §1, §2"}, "[7]": {"tested_on": "VEGFA mRNA", "experiment": "Real-time PCR of VEGFA mRNA expression in NCl–N87 and AGS cells", "settings": "24 h, fMLF 10 nM, antagonists 1 or 2 μM, normalized to GAPDH, untreated = 1", "source_text": "(§3) It has been reported that FPR1 can exert a tumor suppressor function in human GC by inhibiting angiogenesis and that silencing of the receptor increases the constitutive proangiogenic potential of GC cells. Therefore, we assessed the effect of 24a and 25a on the mRNA expression level and secretion of the proangiogenic factors, the vascular growth factor A (VEGFA), and the angiopoietin 2. […] These effects were more pronounced in NCl–N87 cells and resulted more strongly for 25a than 24a. The values obtained after each treatment were normalized to the expression of GAPDH and compared to the reference value of the two genes in untreated cells, which were set equal to 1 (Fig. 9).\n(§4) Fig. 9. Effect of 24a and 25a on mRNA expression of VGFA and ANGPT2 in NCl–N87 and AGS cell lines. Real-time PCR experiments in NCl–N87 and AGS cells with specific primers for VEGFA and ANGPT2 genes. The mRNA expression was normalized on the GAPDH housekeeping gene. Expression analysis was performed after treatment with fMLF (10 nM) and 24a or 25a (1, 2, 5 μM) administrated alone or combining the lowest dose of 24a or 25a with fMLF. All expression values were calculated against the value of untreated PTX-sensitive cells, set equal to 1. Statistical analysis was assessed by comparing the values obtained using single drug treatment to those of corresponding untreated cells and the combined treatments to those of single treatments. The values of untreated PTX-resistant cells were compared with those of untreated PTX-sensitive ones. Data were mean ± SD (n = 3). *p < 0.05, **p < 0.001, ***p < 0.0002, ****p < 0.0001.\n(§5) Total RNA was extracted from FPR1 antagonist-treated NCl–N87 and AGS treated cells using the Qiagen RNeasy Mini Kit (Qiagen, Hilden, Germany) following the manufacturer’s instructions. Samples were retro-transcribed using the iScript Advanced cDNA Synthesis Kit (Bio-Rad Laboratories, California, USA). Real-Time-PCRs analyzed cDNA samples for the evaluation of VEGFA and ANGPT2 expression. […] Relative quantification was performed using the ddCT method."}, "[8]": {"tested_on": "ANGPT2 mRNA", "experiment": "Real-time PCR of ANGPT2 mRNA expression in NCl–N87 and AGS cells", "settings": "24 h, fMLF 10 nM, antagonists 1 or 2 μM, normalized to GAPDH, untreated = 1", "source_text": "as §3, §4, §5"}}, "data": [{"substance": "N-formyl-methionyl-leucyl-phenylalanine [fMLF]", "values": [{"measurement": "increase in cell mobility", "setting": "[1]", "result": 41, "unit": "%"}, {"measurement": "increase in cell mobility", "setting": "[2]", "result": 32, "unit": "%"}, {"measurement": "reduction in the secretion of VEGFA", "setting": "[3]", "result": "approximately 40%"}, {"measurement": "reduction in the secretion of Ang2", "setting": "[4]", "result": "~22", "unit": "%"}, {"measurement": "reduction in the secretion of VEGFA", "setting": "[5]", "result": "~35", "unit": "%"}, {"measurement": "reduction in the secretion of Ang2", "setting": "[6]", "result": "~23", "unit": "%"}, {"measurement": "VEGFA mRNA expression", "setting": "[7]", "result": "reduced expression"}, {"measurement": "angiopoietin 2 (ANGPT2) mRNA expression", "setting": "[8]", "result": "reduced expression"}]}]}
